Data from PMC5376326, “Inhibition of ANO1 by luteolin and its cytotoxicity in human prostate cancer PC-3 cells” (PLoS ONE, 2017).

How the values were obtained:
ANO1 [1] = assay: Quantitative real-time PCR of ANO1 mRNA in PC-3 cells; format: cell-based, human
Procedure: Total messenger RNA (mRNA) was extracted by using a TRIzol reagent (Invitrogen, Carlsbad, CA). Quantitative Real-time PCRs were performed using the StepOnePlus Real-Time PCR System (Applied Biosystems, CA) and Thunderbird SYBR qPCR mix (Toyobo, Osaka, Japan). The thermal cycling conditions comprised an initial step at 95°C for 5 minutes followed by 40 cycles at 95°C for 10 seconds, 55°C for 20 seconds, and 72°C for 10 seconds in a 96-well reaction plate. Primers used were as follows: ANO1-sense 5′-GGAGAAGCAGCATCTATTTG-3′, ANO1-antisense 5′ GATCTCATAGACAATCGTGC-3′, β-actin-sense 5′-GCAAAGACCTGTACGCCAACAC-3′ and β-actin-antisense 5′-ATCTCCTTCTGCATCCTGTC-3′. ANO1 mRNA levels were normalized to β-actin levels and the fold-change in gene expression was determined by using 2^-ΔΔCT method. Quantitative PCR experiments were carried out in triplicates.

ANO1 [2] = molecular target: T1, ANO1 (Homo sapiens, UniProt Q5XXA6); assay: YFP quenching assay of ANO1 activity in PC-3 cells; format: cell-based; details: PC-3 cells expressing high levels of ANO1; indicated concentrations
T1 construct: PC-3 prostate cancer cells expressing high levels of ANO1 endogenously; endogenous in cells; host or cells: PC-3 cells (clones with high ANO1 expression; stably transfected only with the YFP halide sensor)
T1 sequence (Q5XXA6 1-986): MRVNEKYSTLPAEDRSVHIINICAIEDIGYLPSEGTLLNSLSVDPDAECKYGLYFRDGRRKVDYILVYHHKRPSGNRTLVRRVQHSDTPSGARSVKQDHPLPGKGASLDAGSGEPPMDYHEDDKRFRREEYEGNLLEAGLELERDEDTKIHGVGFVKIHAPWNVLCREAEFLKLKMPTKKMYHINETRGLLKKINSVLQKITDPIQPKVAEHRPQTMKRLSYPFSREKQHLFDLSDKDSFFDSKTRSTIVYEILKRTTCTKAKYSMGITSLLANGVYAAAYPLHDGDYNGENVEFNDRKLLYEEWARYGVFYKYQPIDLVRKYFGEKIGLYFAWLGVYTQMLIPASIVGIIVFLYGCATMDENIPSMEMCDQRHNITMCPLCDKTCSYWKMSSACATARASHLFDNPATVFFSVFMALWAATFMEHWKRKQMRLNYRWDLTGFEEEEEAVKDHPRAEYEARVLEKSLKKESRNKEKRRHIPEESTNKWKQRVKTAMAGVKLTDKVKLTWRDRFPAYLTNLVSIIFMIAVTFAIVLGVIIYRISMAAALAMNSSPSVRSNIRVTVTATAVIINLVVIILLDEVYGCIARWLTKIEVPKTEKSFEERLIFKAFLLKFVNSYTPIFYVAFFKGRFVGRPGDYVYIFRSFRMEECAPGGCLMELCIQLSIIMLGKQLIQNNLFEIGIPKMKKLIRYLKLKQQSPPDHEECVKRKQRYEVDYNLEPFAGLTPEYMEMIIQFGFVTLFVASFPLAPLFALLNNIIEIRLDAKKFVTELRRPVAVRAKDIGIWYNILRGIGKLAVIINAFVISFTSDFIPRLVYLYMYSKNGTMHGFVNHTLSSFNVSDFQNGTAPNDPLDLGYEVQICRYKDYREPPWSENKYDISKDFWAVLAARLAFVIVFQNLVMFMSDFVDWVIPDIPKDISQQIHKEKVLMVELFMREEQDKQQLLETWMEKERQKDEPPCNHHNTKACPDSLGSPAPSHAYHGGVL
Procedure: Initial iodide influx rate was determined from the initial slope of fluorescence decrease, by nonlinear regression, following infusion of iodide with ATP.

PC-3 cells [3] = assay: Cell proliferation (MTS) assay in PC-3 cells; format: cell-based, human; details: 24 hour; for Inhibition of cell proliferation, high versus low ANO1 expressing PC-3 cells: 3-100 μM
Procedure: PC-3 cells were seeded to a confluency of ~30% on Day 1 in 96-well plates. […] After 24 hour elapsed, the influence of luteolin and kaempferol on the cell viability was estimated by MTS assay. Briefly, the cells were reincubated with MTS for 1 hour. The soluble formazan produced by cellular reduction of MTS was quantified by measuring the absorbance at 490 nm with Infinite M200 (Tecan, Grödig, Austria) microplate reader. MTS assay was done using CellTiter 96 Aqueous One Solution Cell Proliferation Assay kit (Promega, Madison, WI).

PC-3 cells [4] = assay: Intracellular calcium measurement (Fluo-4) in PC-3 cells; format: cell-based, human; details: 100 μM ATP
Procedure: (§1) Intracellular calcium levels were monitored using Fluo-4 NW calcium assay kit (Invitrogen, Carlsbad, CA) as per the manufacturer's protocol in FRT and PC-3 cells. Briefly, the cells were cultured in a 96 well plate and incubated with 100 μL assay buffer including Fluo-4 NW. After 1 hour incubation, Fluo-4 fluorescence was measured with a FLUOstar Omega microplate reader equipped with syringe pumps and custom Fluo-4 excitation/emission filters (485/538 nm). Intracellular calcium increase was induced by application of 100 μM ATP.

LNCaP = tested on: LNCaP; set-up: method as in PMID 18008333, PMID 23300633; details: intraperitoneal 50 mg/kg; LNCaP xenograft mouse; cited from earlier work
PC-3 = tested on: PC-3; set-up: method as in PMID 18008333, PMID 23300633; details: intraperitoneal 10 mg/kg; PC-3 xenograft mouse; cited from earlier work
[5] = set-up: method as in PMID 9827549; details: rat; oral 50 μmol/kg (~14.3 mg/kg) in propyleneglycol; cited from earlier work
FRT cells = assay: Intracellular calcium measurement (Fluo-4) in FRT cells; format: cell-based, rat; details: 30 and 100 μM, 20 min pretreatment, 100 μM ATP
Procedure: as §1

Compound	Change of ANO1 gene expression levels (ANO1 [1]; 10 μM)	Inhibition of ANO1 activity (ANO1 [2])	Inhibition of cell proliferation, high versus low ANO1 expressing PC-3 cells (PC-3 cells [3])	Effect on ATP-induced intracellular calcium increase (PC-3 cells [4])	Volume and weight of solid tumors (LNCaP)	Volume and weight of solid tumors (PC-3)	Maximum plasma level of free luteolin [5]	Maximum plasma level of total luteolin (free luteolin and its conjugates) [5]	Increase of ANO1 mRNA expression levels (ANO1 [1]; 10 μM)	Change of ANO1 gene expression levels (ANO1 [1]; 30 μM)	Effect on ATP-induced cytosolic calcium increase (FRT cells)	Decrease of cell viability (PC-3 cells [3]; 30 μM, PC-3 cells expressing high levels of ANO1)
O=c1c(O)c(-c2ccc(O)cc2)oc2cc(O)cc(O)c12 [Kaempferol]	slightly increased	significantly inhibited	did not show the significant difference	did not alter	–	–	–	–	–	–	–	–
O=c1cc(-c2ccc(O)c(O)c2)oc2cc(O)cc(O)c12 [luteolin]	slightly increased	potently inhibited	significantly stronger in PC-3 cells with high levels of ANO1 expression	did not alter	significantly decreased	significantly decreased	~ 3.08 μM	~ 15.5 μM	~ 1.3 fold	significantly decreased	not affected	52.6 ± 3.8%
